Laboratory results taken from the supplement of paper PMC6045584.

Columns and labels:
Experiment in all cases: area under dose-response curve of surviving fraction (unscaled, Aref=0) (surviving fraction x log10(nM)); higher = more resistant
Conditions in all cases: exposure time: 5 days; dose range 0.5-1000 nM
[1] = compound: C[C@@H](Oc1cc(-c2cnn(C3CCNCC3)c2)cnc1N)c1c(Cl)ccc(F)c1Cl
In short: (§1)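 Three screens per tumour cell line were run in 384-well plates at eight inhibitor concentrations from 0.5 to 1000 nM over five days. Surviving fractions, from CellTiter-Glo luminescence normalised to DMSO-only wells, were fitted with 3-parameter logistic curves in the drc R package. The reported area under the curve is the unscaled activity area. It spans log10 dose, and Aref is 0.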

FORETINIB = compound: COc1cc2c(Oc3ccc(NC(=O)C4(C(=O)Nc5ccc(F)cc5)CC4)cc3F)ccnc2cc1OCCCN1CCOCC1 [FORETINIB]
In short: as §1

ABIRATERONE = compound: C[C@]12CC[C@H](O)CC1=CC[C@@H]1[C@@H]2CC[C@]2(C)C(c3cccnc3)=CC[C@@H]12 [ABIRATERONE]
In short: as §1

[2] = compound: CNCc1ccc(-c2[nH]c3cc(F)cc4c3c2CCNC4=O)cc1
In short: as §1

OLAPARIB = compound: O=C(c1cc(Cc2n[nH]c(=O)c3ccccc23)ccc1F)N1CCN(C(=O)C2CC2)CC1 [OLAPARIB]
In short: as §1

TEMOZOLOMIDE = compound: Cn1nnc2c(C(N)=O)ncn2c1=O [TEMOZOLOMIDE]
In short: as §1

[3] = compound: CCn1c(C(=O)N(C2CC2)C2CC2)cc2c3c(ncn3C)c(Nc3cc(C)n(C)n3)nc21
In short: as §1

DASATINIB = compound: Cc1nc(Nc2ncc(C(=O)Nc3c(C)cccc3Cl)s2)cc(N2CCN(CCO)CC2)n1 [DASATINIB]
In short: as §1

XAV-939 = compound: Oc1nc(-c2ccc(C(F)(F)F)cc2)nc2c1CSCC2 [XAV-939]
In short: as §1

MLN-4924 = compound: NS(=O)(=O)OC[C@@H]1C[C@@H](n2ccc3c(N[C@H]4CCc5ccccc54)ncnc32)C[C@@H]1O [MLN-4924]
In short: as §1

SORAFENIB = compound: CNC(=O)c1cc(Oc2ccc(NC(=O)Nc3ccc(Cl)c(C(F)(F)F)c3)cc2)ccn1 [SORAFENIB]
In short: as §1

CRIZOTINIB = compound: C[C@@H](Oc1cc(-c2cnn(C3CCNCC3)c2)cnc1N)c1c(Cl)ccc(F)c1Cl [CRIZOTINIB]
In short: as §1

[4] = compound: COc1cc2ncnc(Nc3ccc(F)c(Cl)c3)c2cc1NC(=O)/C=C/CN1CCCCC1
In short: as §1

## HS57T LUNG
[1]
  area under dose-response curve: 2.97
FORETINIB
  area under dose-response curve: 3.04
ABIRATERONE
  area under dose-response curve: 3.71
[2]
  area under dose-response curve: 3.17
OLAPARIB
  area under dose-response curve: 3.54
TEMOZOLOMIDE
  area under dose-response curve: 3.27
[3]
  area under dose-response curve: 3.21
DASATINIB
  area under dose-response curve: 1.87
XAV-939
  area under dose-response curve: 3.24
MLN-4924
  area under dose-response curve: 2.38
SORAFENIB
  area under dose-response curve: 3.44
CRIZOTINIB
  area under dose-response curve: 3.12
[4]
  area under dose-response curve: 3.17
